According to paper PMC7038631 (Alzheimer's & dementia : the journal of the Alzheimer's …, 2019):
Entries after “also recorded” stand apart in the source; their conditions may differ.

Experiments:
[1] = target: purified recombinant full-length 2N4R wild-type (WT) tau (Homo sapiens, UniProt P10636); assay: Surface plasmon resonance binding to immobilized WT tau; details: read-out: Kd, binding to purified WT tau protein (SPR); steady-state, 25 °C, 1 nM to 5 μM
[2] = tested on: WT 2N4R tau monomer; assay: Single-molecule FRET; assay type: biochemical; details: 5 μM, vs buffer or DMSO
[3] = FRET control cells expressing free fluorophores; assay type: cell-based, human
[4] = tested on: untransfected SH-SY5Y cells; details: MK-886 0.5, 1 or 2 μM
[5] = target: purified WT tau proteins (Homo sapiens, UniProt P10636); assay: Heparin induced thioflavin-T; assay type: biochemical
[6] = target: tau preformed fibrils (PFF) (Homo sapiens, UniProt P10636); assay: ThT signal of tau preformed fibrils; assay type: biochemical; details: DTT 5 mM
tau preformed fibrils (PFF), sequence (P10636 1-441 isoform P10636-8): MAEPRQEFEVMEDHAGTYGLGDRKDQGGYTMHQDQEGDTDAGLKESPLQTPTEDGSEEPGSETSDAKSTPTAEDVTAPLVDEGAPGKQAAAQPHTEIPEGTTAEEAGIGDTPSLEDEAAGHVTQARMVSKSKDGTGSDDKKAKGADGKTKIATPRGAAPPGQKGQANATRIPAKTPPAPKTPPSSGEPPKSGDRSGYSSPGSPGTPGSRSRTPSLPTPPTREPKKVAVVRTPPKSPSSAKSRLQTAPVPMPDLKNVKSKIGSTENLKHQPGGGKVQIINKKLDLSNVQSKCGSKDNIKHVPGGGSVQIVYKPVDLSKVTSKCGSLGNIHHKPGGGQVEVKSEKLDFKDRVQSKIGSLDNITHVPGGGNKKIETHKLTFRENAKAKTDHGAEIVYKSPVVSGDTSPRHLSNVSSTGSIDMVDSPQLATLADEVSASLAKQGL

purified WT tau proteins, sequence (P10636 1-441 isoform P10636-8): as above
purified recombinant full-length 2N4R wild-type (WT) tau, sequence (P10636 1-441 isoform P10636-8): as above

Row | SMILES | Kd [1] [nM] | smFRET change, N-terminal domain labeled tau construct [2] | smFRET change, PRR/MTBR labeled tau construct [2] | Action on cytosolic fluorophores (control FRET) [3] | Rescue of cell cytotoxicity induced by UC-112 ([4]; UC-112 1 μM) | Rescue of cell cytotoxicity induced by YM-155 ([4]; YM-155 1 μM) | Direct effect on ThT fluorescence [5] | Effect on lag phase of tau β-sheet fibril formation (ThT) ([5]; heparin 0.4 mg/ml, MK-886 0.5 and 5 μM) | Nucleation of tau fibril formation without heparin (ThT) ([5]; no heparin) | Effect on ThT signal from tau PFF [6]
1 | CC(C)c1ccc2c(c1)c(SC(C)(C)C)c(CC(C)(C)C(=O)O)n2Cc1ccc(Cl)cc1 [MK-886] | 178 | minor decrease in FRET | substantial increase in FRET | not acting on the cytosolic fluorophores | did not rescue | did not rescue | did not have a direct effect | reduces the lag phase; also recorded: shortens the lag phase | unable to nucleate tau fibrillization; also recorded: did not act to nucleate | did not reduce
2 | O=c1c(O)c(-c2ccc(O)c(O)c2)oc2c(O)c(O)cc(O)c12 [gossypetin] |  |  |  |  |  |  |  |  |  | significant decrease
